What all share (details): Not Active = under 50% inhibition at 10 µM
Test [1] is described as follows: DRUGMATRIX: Glutamate, AMPA radioligand binding (ligand: [3H] AMPA). The format is cell membranes, Rattus norvegicus, Wistar, Cerebral cortex, Membrane.
Test [2] addresses T1, Amine oxidase [flavin-containing] A (Homo sapiens, UniProt P21397).
T1 sequence (P21397 whole entry): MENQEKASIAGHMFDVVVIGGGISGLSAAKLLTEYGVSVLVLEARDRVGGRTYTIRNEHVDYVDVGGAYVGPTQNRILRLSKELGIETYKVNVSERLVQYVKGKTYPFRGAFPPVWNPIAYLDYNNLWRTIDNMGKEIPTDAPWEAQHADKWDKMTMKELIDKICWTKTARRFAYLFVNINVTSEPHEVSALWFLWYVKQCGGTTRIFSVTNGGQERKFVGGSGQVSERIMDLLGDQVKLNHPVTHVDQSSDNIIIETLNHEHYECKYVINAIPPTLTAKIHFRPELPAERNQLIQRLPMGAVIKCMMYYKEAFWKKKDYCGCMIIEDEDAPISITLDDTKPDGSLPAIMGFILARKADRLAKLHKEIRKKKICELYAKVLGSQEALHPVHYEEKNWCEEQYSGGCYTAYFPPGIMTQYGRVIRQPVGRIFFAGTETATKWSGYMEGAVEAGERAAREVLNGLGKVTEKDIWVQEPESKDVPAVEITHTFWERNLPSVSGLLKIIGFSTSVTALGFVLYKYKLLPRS
Put plainly: DRUGMATRIX: Monoamine Oxidase MAO-A enzyme inhibition (substrate: Kynuramine). Set-up: species or system BTI-TN-5B1-4.

Test [3] is described as follows: DRUGMATRIX: GABAA, Chloride Channel, TBOB radioligand binding (ligand: [3H] TBOB). The format is cell membranes, Rattus norvegicus, Wistar, Cerebral cortex, Membrane.
For a further test, the target named is T2, Progesterone receptor (Bos taurus, UniProt Q690N0).
T2 sequence (Q690N0 whole entry): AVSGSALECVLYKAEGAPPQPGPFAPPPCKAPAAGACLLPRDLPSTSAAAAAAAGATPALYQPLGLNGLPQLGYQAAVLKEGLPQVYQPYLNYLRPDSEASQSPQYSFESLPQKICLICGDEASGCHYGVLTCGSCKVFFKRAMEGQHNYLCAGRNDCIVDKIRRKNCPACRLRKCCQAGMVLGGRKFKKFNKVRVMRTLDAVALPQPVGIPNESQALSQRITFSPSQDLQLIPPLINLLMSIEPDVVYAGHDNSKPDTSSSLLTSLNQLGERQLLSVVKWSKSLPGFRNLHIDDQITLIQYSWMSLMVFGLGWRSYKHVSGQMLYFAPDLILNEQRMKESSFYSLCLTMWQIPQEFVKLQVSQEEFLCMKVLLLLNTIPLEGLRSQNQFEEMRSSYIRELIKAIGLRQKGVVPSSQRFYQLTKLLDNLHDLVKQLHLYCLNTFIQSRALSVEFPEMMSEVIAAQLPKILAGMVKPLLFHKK
Put plainly: DRUGMATRIX: Progesterone radioligand binding (ligand: [3H] R-5020). The format is tissue-based, Uterus.

Test [4] is described as follows: DRUGMATRIX: Calcium Channel Type L, Dihydropyridine radioligand binding (ligand: [3H] Nitrendipine). The format is cell membranes, Rattus norvegicus, Wistar, Cerebral cortex, Membrane.
Test [5] has as its target Sigma non-opioid intracellular receptor 1 (Homo sapiens, UniProt Q99720). Put plainly: DRUGMATRIX: Sigma1 radioligand binding (ligand: [3H] Haloperidol). The format is cell membranes, Jurkat, Membrane.

Sequence of Sigma non-opioid intracellular receptor 1 (Q99720 whole entry): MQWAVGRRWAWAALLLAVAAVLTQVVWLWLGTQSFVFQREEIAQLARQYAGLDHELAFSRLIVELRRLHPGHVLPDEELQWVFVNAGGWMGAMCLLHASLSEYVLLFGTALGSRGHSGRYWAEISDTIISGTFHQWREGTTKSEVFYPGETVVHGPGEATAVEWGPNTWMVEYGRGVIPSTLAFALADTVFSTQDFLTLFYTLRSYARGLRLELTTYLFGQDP

For the molecule `CCOc1nc2cccc(C(=O)O)c2n1Cc1ccc(-c2ccccc2-c2nnn[nH]2)cc1`, the 50% inhibitory concentration (IC50) result (in test [1]; in test [2] (bti-tn-5b1-4); in test [3]; at Progesterone receptor; in test [4]; in test [5] (jurkat)) was “Not Active” each time. Further, the Ki entry in test [1], in test [3] and in test [4] was “Not Active” each time.

Regarding `O=C(O)CCCc1cccs1`, the IC50 result (in test [1]; in test [2] (bti-tn-5b1-4); in test [3]; at Progesterone receptor; in test [4]; in test [5] (jurkat)) was “Not Active” throughout. For the same molecule, the Ki entry in test [1], in test [3] and in test [4] was “Not Active” in each case.

In the case of `COc1ccccc1N`, the IC50 entry (in test [1]; in test [2] (bti-tn-5b1-4); in test [3]; at Progesterone receptor; in test [4]; in test [5] (jurkat)) was “Not Active” each time. Besides, the Ki result in test [1], in test [3] and in test [4] was “Not Active” in each case.

As for `O=C(c1ccccc1F)N1CCC(Cc2ccccc2)CC1`, the IC50 result (in test [1]; in test [2] (bti-tn-5b1-4); in test [3]; at Progesterone receptor; in test [4]; in test [5] (jurkat)) was “Not Active” in each case. The Ki result in test [1], in test [3] and in test [4] was “Not Active” throughout.

On to `Cc1c(O)cccc1C(=O)N[C@@H](CSc1ccccc1)[C@H](O)CN1C[C@H]2CCCC[C@H]2C[C@H]1C(=O)NC(C)(C)C`, for which the IC50 – broadly, the concentration that gives 50% inhibition – is “Not Active” in test [1]; “Not Active” in test [2] (bti-tn-5b1-4); “Not Active” in test [3]; 44.5 µM on Progesterone receptor (read-out: IC50); 9.84 µM in test [4] (read-out: IC50); “Not Active” in test [5] (jurkat). Further, the Ki (in general, the dissociation constant of the complex between target and ligand, obtained from inhibition or displacement) was “Not Active” in test [1], “Not Active” in test [3], 5.8 µM at Progesterone receptor (read-out: Ki) and 6.32 µM in test [4] (read-out: Ki).

Take `CC(O)COC[C@H]1O[C@@H]2O[C@H]3[C@H](O)[C@@H](O)[C@@H](O[C@H]4[C@H](O)[C@@H](O)[C@@H](O[C@H]5[C@H](O)[C@@H](O)[C@@H](O[C@H]6[C@H](O)[C@@H](O)[C@@H](O[C@H]7[C@H](O)[C@@H](O)[C@@H](O[C@H]8[C@H](O)[C@@H](O)[C@@H](O[C@H]1[C@H](O)[C@H]2O)O[C@@H]8COCC(C)O)O[C@@H]7COCC(C)O)O[C@@H]6COCC(C)O)O[C@@H]5COCC(C)O)O[C@@H]4COCC(C)O)O[C@@H]3COCC(C)O` (stereo partly drawn) [2-HYDROXYPROPYL-BETA-CYCLODEXTRIN]: the IC50 entry in test [1] is “Not Active”; in test [2] (read-out: IC50) it was 0.167 µM; in test [3], “Not Active”; on Progesterone receptor it was “Not Active”; in test [4], “Not Active”; in test [5] (jurkat), “Not Active”. In addition, the Ki entry in test [1], in test [3] and in test [4] was “Not Active” throughout.

For the molecule `NC(=O)c1cccc(N)c1` [3-AMINOBENZAMIDE], the IC50 entry (in test [1]; in test [2] (bti-tn-5b1-4); in test [3]; on Progesterone receptor; in test [4]; in test [5] (jurkat)) was “Not Active” each time. The Ki result in test [1], in test [3] and in test [4] was “Not Active” in each case.

Take `C[C@H]1O[C@H](O[C@H]2[C@H](O)[C@@H](O)[C@@H](O[C@H]3[C@H](O)[C@@H](O)C(O)O[C@@H]3CO)O[C@@H]2CO)[C@H](O)[C@@H](O)[C@@H]1N[C@H]1C=C(CO)[C@@H](O)[C@H](O)[C@H]1O` (stereo partly drawn) [ACARBOSE]: the IC50 entry (in test [1]; in test [2] (bti-tn-5b1-4); in test [3]; at Progesterone receptor; in test [4]; in test [5] (jurkat)) was “Not Active” each time. The Ki entry in test [1], in test [3] and in test [4] was “Not Active” each time.

Regarding `CC[C@H]1[C@@H]2C[C@H]3[C@@H]4N(C)c5ccccc5[C@]45C[C@@H]([C@@H]2[C@H]5O)N3[C@@H]1O` [AJMALINE], the IC50 entry (in test [1]; in test [2] (bti-tn-5b1-4); in test [3]; at Progesterone receptor; in test [4]; in test [5] (jurkat)) was “Not Active” each time. The Ki entry in test [1], in test [3] and in test [4] was “Not Active” in each case.

On to `NC12CC3CC(CC(C3)C1)C2` [AMANTADINE], for which the IC50 entry (in test [1]; in test [2] (bti-tn-5b1-4); in test [3]; at Progesterone receptor; in test [4]; in test [5] (jurkat)) was “Not Active” in each case. Further, the Ki result in test [1], in test [3] and in test [4] was “Not Active” in each case.

For the molecule `NCCCNCCSP(=O)(O)O` [AMIFOSTINE], the IC50 result in test [1], in test [2] (bti-tn-5b1-4), in test [3], in test [4] and in test [5] (jurkat) was “Not Active” each time. The Ki entry in test [1], in test [3] and in test [4] was “Not Active” each time.

Take `CN(C)CCC=C1c2ccccc2CCc2ccccc21` [AMITRIPTYLINE]: the half-maximal inhibitory concentration (IC50) result in test [1] is “Not Active”; in test [2] (bti-tn-5b1-4), “Not Active”; in test [3], “Not Active”; at Progesterone receptor, “Not Active”; in test [4], “Not Active”; in test [5] (read-out: IC50), 1.03 µM. The Ki result in test [1] is “Not Active”; in test [3] it was “Not Active”; in test [4], “Not Active”; in test [5] (read-out: Ki) it was 0.433 µM.

As for `CC(=O)Oc1ccccc1C(=O)O` [ASPIRIN], the IC50 entry (in test [1]; in test [2] (bti-tn-5b1-4); in test [3]; at Progesterone receptor; in test [4]; in test [5] (jurkat)) was “Not Active” in each case. The Ki result in test [1], in test [3] and in test [4] was “Not Active” throughout.

Consider `COc1cc(OC)c(C(=O)CCCN2CCCC2)c(OC)c1` [BUFLOMEDIL], for which the IC50 entry (in test [1]; in test [2] (bti-tn-5b1-4); in test [3]; on Progesterone receptor; in test [4]) was “Not Active” each time. Moreover, the Ki result in test [1], in test [3] and in test [4] was “Not Active” throughout.

For the molecule `CN1CCN(C(c2ccccc2)c2ccccc2)CC1` [CYCLIZINE], the IC50 entry (in test [1]; in test [2] (bti-tn-5b1-4); in test [3]; at Progesterone receptor; in test [4]) was “Not Active” throughout. Moreover, the Ki entry in test [1], in test [3] and in test [4] was “Not Active” throughout.

As for `CC(O)(P(=O)(O)O)P(=O)(O)O` [ETIDRONIC ACID], the IC50 result in test [1], in test [2] (bti-tn-5b1-4), in test [3], in test [4] and in test [5] (jurkat) was “Not Active” in each case. In addition, the Ki result in test [1], in test [3] and in test [4] was “Not Active” throughout.

In the case of `O=c1c(-c2ccc(O)cc2)coc2cc(O)cc(O)c12` [GENISTEIN], the IC50 result (in test [1]; in test [3]; on Progesterone receptor; in test [4]; in test [5] (jurkat)) was “Not Active” each time. In addition, the Ki result in test [1], in test [3] and in test [4] was “Not Active” in each case.

Take `NNCCc1ccccc1` [PHENELZINE]: the IC50 result (in test [1]; in test [3]; at Progesterone receptor; in test [4]; in test [5] (jurkat)) was “Not Active” each time. Further, the inhibitory constant (Ki) entry in test [1], in test [3] and in test [4] was “Not Active” each time.

Values taken from ChEMBL document CHEMBL1909046, “DrugMatrix in vitro pharmacology data”.
